Consider 9 molecules from ChEMBL document CHEMBL4619711, “Medicinal Chemistry of Inhibiting RING-Type E3 Ubiquitin Ligases” (J Med Chem, 2020).

Data set [1] can be described thus: Plasma clearance in mouse at iv dose. The format is ADME, organism-based.
The target in data set [2] is T1, E3 ubiquitin-protein ligase XIAP (Homo sapiens, UniProt P98170). Briefly: Inhibition of XIAP-BIR3 domain (unknown origin).
The target of data set [3] is T1, E3 ubiquitin-protein ligase XIAP. Briefly: Inhibition of XIAP-BIR2 domain (unknown origin).
Data set [4] can be described thus: Stability in rat blood assessed as parent compound remaining after 4 hrs. The format is ADME, tissue-based. The settings on record: read-out: Stability.
In data set [5] the target is von Hippel-Lindau disease tumor suppressor (Homo sapiens, UniProt P40337). Nature of the data set: Inhibition of VHL (unknown origin) by fluorescence polarization assay. A general note: In fluorescence polarisation assays a small probe gives low polarisation when free and higher when bound to something large.
For a further data set, the system named is SJSA-1. Briefly: cells. The settings on record: Homo sapiens.
A short description of data set [6]: Oral bioavailability in mouse. Format: ADME, organism-based. The conditions noted are these: in vivo.

Some results are limits rather than exact numbers.

T1 sequence (P98170 whole entry, the tested form may be a part): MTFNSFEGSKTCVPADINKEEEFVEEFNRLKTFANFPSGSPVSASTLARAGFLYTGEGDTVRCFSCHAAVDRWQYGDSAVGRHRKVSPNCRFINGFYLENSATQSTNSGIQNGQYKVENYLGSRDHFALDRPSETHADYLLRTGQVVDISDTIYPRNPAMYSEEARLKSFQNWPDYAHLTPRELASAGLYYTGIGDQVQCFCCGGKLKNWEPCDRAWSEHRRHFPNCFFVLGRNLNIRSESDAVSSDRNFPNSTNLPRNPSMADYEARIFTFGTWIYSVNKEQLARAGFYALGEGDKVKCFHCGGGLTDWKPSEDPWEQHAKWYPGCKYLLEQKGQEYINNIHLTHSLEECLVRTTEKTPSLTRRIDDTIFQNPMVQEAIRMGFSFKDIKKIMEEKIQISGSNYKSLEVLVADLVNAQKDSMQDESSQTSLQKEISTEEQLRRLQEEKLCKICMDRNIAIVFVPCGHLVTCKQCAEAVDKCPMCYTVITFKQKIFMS
von Hippel-Lindau disease tumor suppressor, sequence (P40337 whole entry): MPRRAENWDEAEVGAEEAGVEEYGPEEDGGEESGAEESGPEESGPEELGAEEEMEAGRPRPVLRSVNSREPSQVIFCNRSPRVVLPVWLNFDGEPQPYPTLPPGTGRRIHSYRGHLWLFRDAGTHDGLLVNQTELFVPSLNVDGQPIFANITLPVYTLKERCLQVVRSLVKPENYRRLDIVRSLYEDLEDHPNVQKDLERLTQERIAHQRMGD

On to `CN[C@@H](C)C(=O)NC1C(=O)N(Cc2c(C#N)n(-c3ccccc3C#N)c3ccccc23)c2ccccc2CC12CCOCC2` (some centres undefined), for which, in data set [1], the clearance – broadly, a measure of how efficiently the substance is removed, as volume per time – came to 41 mL/min/kg. Moreover, the IC50 – broadly, the point on the concentration scale where inhibition reaches its midpoint – in data set [2] was 3100 nM; in data set [3], 39 nM.

In data set [1], `CN[C@@H](C)C(=O)N[C@H]1CCc2ccccc2N(Cc2c(OC)ccc3cc(Br)ccc23)C1=O` returned a clearance of 155 mL/min/kg. Further, the remaining at 4 h in data set [4] was 40%. Further, the 50% inhibitory concentration (IC50) was more than 54000 nM in data set [2] and 194 nM in data set [3].

Consider `CN[C@@H](C)C(=O)NC1C(=O)N(Cc2c(OC)ccc3cc(Br)ccc23)c2ccccc2CC12CCOCC2` (some centres undefined), for which the clearance in data set [1] is 60 mL/min/kg. Besides, the remaining at 4 h in data set [4] was determined as 88%. The values for the IC50 in data set [2] and in data set [3] were 24000 nM and 65 nM, respectively.

As for `Cc1cc(CC(=O)N2C[C@H](O)C[C@H]2C(=O)NCc2ccccc2Cl)on1`, the IC50 in data set [5] turned out to be 117000 nM.

In data set [1], `CN[C@@H](C)C(=O)N[C@H]1COc2ccccc2N(Cc2c(OC)ccc3cc(Br)ccc23)C1=O` showed a clearance of 521 mL/min/kg. In data set [4], the remaining at 4 h came to 7%.

In the data set on SJSA-1, `CC(C)(C)C[C@@H]1N[C@@H](C(=O)N[C@H]2CC[C@H](O)CC2)[C@H](c2cccc(Cl)c2F)[C@@]12C(=O)Nc1cc(Cl)ccc12` registered an IC50 of 92 nM.

In data set [5], `Cc1ncsc1-c1ccc(CNC(=O)[C@@H]2C[C@@H](O)CN2C(=O)c2cccc(N)c2C)cc1` returned a 50% inhibitory concentration (IC50) of 670 nM.

For the molecule `CN[C@@H](C)C(=O)N[C@@H]1C(=O)N(Cc2c(C)ccc3ccccc23)c2ccc(C#N)cc2N(C(C)=O)[C@H]1C`, in data set [6], the bioavailability (in general, the share of a dose that reaches the circulation, judged against a reference dose that is usually intravenous) came to 28%. In addition, the clearance in data set [1] stood at 4.3 mL/min/kg.

With `CC(C)(C)C[C@@H]1N[C@@H](C(=O)NCCN2CCOCC2)[C@H](c2cccc(Cl)c2F)[C@@]12C(=O)Nc1cc(Cl)ccc12`, the IC50 with SJSA-1 worked out at 500 nM.
